Test results: ChEMBL document CHEMBL1144023, “Computer-aided discovery of anti-inflammatory thiazolidinones with dual cyclooxygenase/lipoxygenase inhibition” (J Med Chem, 2008)
The source made the active and inactive calls. The calls are words filed in the database; no cut-off is given here.

Key:
[1] = target: T1, Prostaglandin G/H synthase 2 (Homo sapiens) (UniProt P35354); experiment: Inhibition of human recombinant COX2 at 200 uM
T1 sequence (whole entry): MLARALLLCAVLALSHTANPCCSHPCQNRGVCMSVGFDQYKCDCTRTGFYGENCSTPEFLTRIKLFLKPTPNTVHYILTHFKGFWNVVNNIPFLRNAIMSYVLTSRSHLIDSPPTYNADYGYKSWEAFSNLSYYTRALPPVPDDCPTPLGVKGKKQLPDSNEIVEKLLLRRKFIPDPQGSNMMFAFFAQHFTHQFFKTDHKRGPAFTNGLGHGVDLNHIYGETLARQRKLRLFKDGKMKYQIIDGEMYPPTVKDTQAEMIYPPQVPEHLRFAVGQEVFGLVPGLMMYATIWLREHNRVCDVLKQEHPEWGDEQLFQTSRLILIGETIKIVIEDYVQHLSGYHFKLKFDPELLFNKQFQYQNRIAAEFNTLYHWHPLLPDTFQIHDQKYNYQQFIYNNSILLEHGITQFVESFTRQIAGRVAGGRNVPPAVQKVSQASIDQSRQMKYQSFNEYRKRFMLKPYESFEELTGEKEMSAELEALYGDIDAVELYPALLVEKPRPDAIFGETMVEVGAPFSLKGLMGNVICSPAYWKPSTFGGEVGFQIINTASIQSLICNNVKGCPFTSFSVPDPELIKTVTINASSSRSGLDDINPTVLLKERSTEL

[2] = target: T2, Prostaglandin G/H synthase 1 (Ovis aries) (UniProt P05979); experiment: Inhibition of sheep COX1 at 200 uM in presence of 1 uM arachidonic acid
T2 sequence (whole entry): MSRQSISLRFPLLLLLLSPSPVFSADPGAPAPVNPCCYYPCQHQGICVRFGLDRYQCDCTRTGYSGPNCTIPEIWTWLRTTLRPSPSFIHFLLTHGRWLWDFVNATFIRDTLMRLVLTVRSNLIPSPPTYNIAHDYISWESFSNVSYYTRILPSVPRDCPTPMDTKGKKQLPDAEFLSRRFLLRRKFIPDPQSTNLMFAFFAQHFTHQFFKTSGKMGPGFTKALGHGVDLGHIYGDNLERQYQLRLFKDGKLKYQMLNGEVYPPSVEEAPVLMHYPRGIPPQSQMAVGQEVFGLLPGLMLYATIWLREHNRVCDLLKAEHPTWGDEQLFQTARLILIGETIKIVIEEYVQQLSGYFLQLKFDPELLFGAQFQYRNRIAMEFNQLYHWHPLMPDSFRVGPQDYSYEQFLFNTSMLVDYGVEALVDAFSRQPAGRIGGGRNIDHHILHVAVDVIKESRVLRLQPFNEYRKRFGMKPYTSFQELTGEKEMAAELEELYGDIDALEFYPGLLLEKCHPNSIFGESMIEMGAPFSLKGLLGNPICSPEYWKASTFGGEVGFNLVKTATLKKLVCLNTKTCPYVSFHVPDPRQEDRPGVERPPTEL

[3] = target: T2, Prostaglandin G/H synthase 1 (Ovis aries); experiment: Inhibition of sheep COX1 at 200 uM in presence of 100 uM arachidonic acid
[4] = target: T3, Seed linoleate 13S-lipoxygenase-1 (Glycine max) (UniProt P08170); experiment: Inhibition of soybean LOX at 100 uM
T3 sequence (whole entry): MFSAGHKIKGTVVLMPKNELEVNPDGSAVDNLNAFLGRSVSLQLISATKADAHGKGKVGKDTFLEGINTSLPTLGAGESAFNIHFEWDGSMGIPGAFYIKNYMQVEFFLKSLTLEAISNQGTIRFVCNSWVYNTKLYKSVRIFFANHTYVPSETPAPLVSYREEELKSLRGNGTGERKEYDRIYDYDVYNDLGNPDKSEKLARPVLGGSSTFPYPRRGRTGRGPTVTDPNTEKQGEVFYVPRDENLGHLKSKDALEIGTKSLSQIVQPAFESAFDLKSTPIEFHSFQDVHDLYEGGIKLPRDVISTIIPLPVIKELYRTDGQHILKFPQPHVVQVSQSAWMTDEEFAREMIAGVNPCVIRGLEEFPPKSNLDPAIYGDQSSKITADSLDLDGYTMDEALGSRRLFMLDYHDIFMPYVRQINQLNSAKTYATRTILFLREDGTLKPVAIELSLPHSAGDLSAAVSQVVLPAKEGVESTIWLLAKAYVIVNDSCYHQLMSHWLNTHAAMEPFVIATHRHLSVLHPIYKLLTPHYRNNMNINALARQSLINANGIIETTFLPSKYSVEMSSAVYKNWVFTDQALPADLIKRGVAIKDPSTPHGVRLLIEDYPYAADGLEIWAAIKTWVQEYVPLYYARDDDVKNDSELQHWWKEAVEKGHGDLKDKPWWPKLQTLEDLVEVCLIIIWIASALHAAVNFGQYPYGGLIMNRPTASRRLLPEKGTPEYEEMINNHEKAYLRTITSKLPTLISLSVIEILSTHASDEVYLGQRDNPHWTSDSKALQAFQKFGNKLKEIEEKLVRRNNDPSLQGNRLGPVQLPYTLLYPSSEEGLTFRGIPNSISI

Mus musculus = experiment: Antiinflammatory activity in AKR mouse assessed as inhibition of carrageenan-induced paw edema at 0.01 mmol/kg; type: functional
[5] = target: T4, Prostaglandin G/H synthase 2 (Homo sapiens, UniProt P35354); experiment: Inhibition of human recombinant COX2
T4 sequence (P35354 whole entry): T1 sequence (whole entry)

inhibition [1] [%]	inhibition [2] [%]	Activity [3]	inhibition [4] [%]	IC50 [5] [µM]	Structure (SMILES)	inhibition in vivo at 10 µmol/kg (Mus musculus) [%]
0	0				O=C1CSC(Nc2nccs2)=N1	
4.5	60	inactive	12.5		O=C1N/C(=N\c2nccs2)S/C1=C/c1ccc([N+](=O)[O-])cc1	66.1
30.4	90	inactive	12	262	O=C1N/C(=N\c2nccs2)S/C1=C/c1cccc(Cl)c1	44.5
2.5	8	inactive	22.4		COc1ccc(/C=C2/S/C(=N/c3nccs3)NC2=O)cc1	51.1
